# Reference: ChEMBL document CHEMBL1150475, “Synthesis and biological activity of new optically active 2-oxaisocephems: 3-(N-alkylpyridinium-4-thio)methyl derivatives” (1994)
# Legend:
# Staphylococcus aureus [1] = experiment: Antibacterial activity against gram- positive Staphylococcus aureus FDA 209P; type: functional
# Escherichia coli [2] = experiment: Antibacterial activity against gram- negative Escherichia coli NIHJ JC-2; type: functional
# Pseudomonas aeruginosa [3] = experiment: Antibacterial activity against gram- negative Pseudomonas aeruginosa ATCC 10145; type: functional
# Staphylococcus aureus [4] = experiment: Antibacterial activity against gram- positive Staphylococcus aureus MRSA 57; type: functional
# Mus musculus [5] = species on record: Mus musculus; experiment: Antibacterial activity against mice infected with MRSA 5120 challenged with a dose of 7.6*10e7 cells/mouse; type: functional
# Mus musculus [6] = species on record: Mus musculus; experiment: Antibacterial activity against mice infected with Staphylococcus aureus Smith.; type: functional
# Escherichia coli [7] = experiment: Antibacterial activity against Escherichia coli No.29
# Mus musculus [8] = species on record: Mus musculus; experiment: Antibacterial activity against mice infected with Escherichia coli No.29; type: functional
# Staphylococcus aureus [9] = experiment: Antibacterial activity against Staphylococcus aureus Smith.
# Staphylococcus aureus [10] = experiment: Antibacterial activity against gram- positive Staphylococcus aureus Methicillin resistant Staphylococcus aureus 57; type: functional
# Escherichia coli [11] = experiment: Antibacterial activity against Escherichia coli No.29; remark: listed apart in the source
# Mus musculus [12] = species on record: Mus musculus; experiment: Antibacterial activity against mice infected with MRSA 5038 challenged with a dose of 1*10e7 cells/mouse; type: functional
# Mus musculus [13] = species on record: Mus musculus; experiment: Antibacterial activity against mice infected with Staphylococcus aureus Smith challenged with a dose of 1.32*10e7 cells/mouse; type: functional
# Mus musculus [14] = species on record: Mus musculus; experiment: Antibacterial activity against mice infected with Escherichia coli No.29 challenged with a dose of 1.35*10e6 cells/mouse; type: functional
# Staphylococcus aureus [15] = experiment: Antibacterial activity against MRSA 5038.
# Pseudomonas aeruginosa [16] = experiment: Antibacterial activity against gram- negative Pseudomonas […] ATCC 10145; type: functional
# Mus musculus [17] = species on record: Mus musculus; experiment: Antibacterial activity against mice infected with MRSA 5129 challenged with a dose of 1.31*10e8 cells/mouse; type: functional
# Staphylococcus aureus [18] = experiment: Antibacterial activity against MRSA 5129
# Staphylococcus aureus [19] = experiment: Antibacterial activity against Staphylococcus aureus Smith.; remark: listed apart in the source
# Staphylococcus aureus [20] = experiment: Antibacterial activity against Staphylococcus aureus Smith
# Staphylococcus aureus [21] = experiment: microbe, parasite or virus in culture
# Description: Antibacterial activity against Methicillin resistant Staphylococcus aureus 5129
# Staphylococcus aureus [22] = experiment: microbe, parasite or virus in culture; remark: listed apart in the source
# Description: Antibacterial activity against Methicillin resistant Staphylococcus aureus 5120
# Staphylococcus aureus [23] = experiment: microbe, parasite or virus in culture; remark: listed apart in the source
# Description: Antibacterial activity against Methicillin resistant Staphylococcus aureus 5038
# Mus musculus [24] = species on record: Mus musculus; experiment: Antibacterial activity against mice infected with MRSA 5038; type: functional
# Pseudomonas aeruginosa [25] = experiment: Antibacterial activity against Pseudomonas aeruginosa ATCC 10145; type: functional
# Escherichia coli [26] = experiment: Antibacterial activity against Escherichia coli NIHJ JC-2; type: functional
Structure (SMILES),MIC (Staphylococcus aureus [1]) [µg/mL],MIC (Escherichia coli [2]) [µg/mL],MIC (Pseudomonas aeruginosa [3]) [µg/mL],MIC (Staphylococcus aureus [4]) [µg/mL],MIC (Escherichia coli [7]) [µg/mL],ED50 (Mus musculus [8]) [mg/kg],MIC (Staphylococcus aureus [9]) [µg/mL],further results
CO/N=C(/C(=O)N[C@@H]1C(=O)N2C(C(=O)O)=C(CSc3cc[n+](C)cc3)OC[C@H]12)c1csc(N)n1.O=S(=O)([O-])O,0.2,< 0.025,6.25,50,,,,
CCC(=O)C[n+]1ccc(SCC2=C(C(=O)O)N3C(=O)[C@@H](NC(=O)/C(=N/OC4CCCC4)c4csc(N)n4)[C@H]3CO2)cc1.O=S(=O)([O-])O,0.2,0.39,6.25,6.25,0.39,0.15,0.2,ED50 (Mus musculus [5]): 1 mg/kg; ED50 (Mus musculus [6]): 0.22 mg/kg
CO[C@@]1(NC(=O)CSC(F)F)C(=O)N2C(C(=O)O)=C(CSc3nnnn3CCO)CO[C@@H]21 [FLOMOXEF],0.2,0.1,> 100,,0.1,0.43,0.39,MIC (Staphylococcus aureus [10]): 25 µg/mL
C[n+]1ccc(SCC2=C(C(=O)O)N3C(=O)[C@@H](NC(=O)/C(=N/OC4CCCC4)c4csc(N)n4)[C@H]3CO2)cc1.O=S(=O)([O-])O,0.05,0.39,,3.13,,,,MIC (Escherichia coli [11]): 0.39 µg/mL; ED50 (Mus musculus [12]): 3.4 mg/kg; ED50 (Mus musculus [13]): 0.08 mg/kg; ED50 (Mus musculus [14]): 0.09 mg/kg; MIC (Staphylococcus aureus [15]): 3.13 µg/mL; MIC (Pseudomonas aeruginosa [16]): 3.13 µg/mL; ED50 (Mus musculus [17]): 3.91 mg/kg; MIC (Staphylococcus aureus [18]): 6.25 µg/mL; MIC (Staphylococcus aureus [19]): 0.39 µg/mL
CO/N=C(/C(=O)N[C@@H]1C(=O)N2C(C(=O)O)=C(CSc3cc[n+](CC(C)=O)cc3)OC[C@H]12)c1csc(N)n1.O=S(=O)([O-])O,0.39,< 0.025,12.5,100,,,,
CN[C@H](CC(C)C)C(=O)N[C@H]1C(=O)N[C@@H](CC(N)=O)C(=O)N[C@H]2C(=O)N[C@H]3C(=O)N[C@H](C(=O)N[C@H](C(=O)O)c4cc(O)cc(O)c4-c4cc3ccc4O)[C@H](O)c3ccc(c(Cl)c3)Oc3cc2cc(c3O[C@@H]2O[C@H](CO)[C@@H](O)[C@H](O)[C@H]2O[C@H]2C[C@](C)(N)[C@H](O)[C@H](C)O2)Oc2ccc(cc2Cl)[C@H]1O [VANCOMYCIN],,,,,,,,MIC (Staphylococcus aureus [20]): 0.78 µg/mL; MIC (Staphylococcus aureus [21]): 0.78 µg/mL; MIC (Staphylococcus aureus [22]): 0.78 µg/mL; MIC (Staphylococcus aureus [23]): 1.56 µg/mL; ED50 (Mus musculus [24]): 2.7 mg/kg; MIC (Pseudomonas aeruginosa [25]): > 100 µg/mL; MIC (Escherichia coli [26]): > 100 µg/mL
